In this assay the target is T1, Aurora A kinase domain (Homo sapiens, UniProt O14965).
T1 construct: human Aurora A kinase domain (residues 122-403 in the pET24-d vector); His-tag (cleaved yes); made in house; host or cells: E. coli BL21 (DE3) Rosetta
T1 sequence (O14965 122-403): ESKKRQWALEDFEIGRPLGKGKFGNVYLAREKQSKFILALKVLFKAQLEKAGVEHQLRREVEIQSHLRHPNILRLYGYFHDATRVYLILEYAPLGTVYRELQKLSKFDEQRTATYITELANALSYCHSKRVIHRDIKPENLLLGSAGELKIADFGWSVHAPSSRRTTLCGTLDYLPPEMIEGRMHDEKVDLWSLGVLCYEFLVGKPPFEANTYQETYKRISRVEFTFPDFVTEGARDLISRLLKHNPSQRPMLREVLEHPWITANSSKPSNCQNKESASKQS
Put plainly: HTRF kinase assay, Aurora A. Conditions: free Aurora A, 20 μM ATP, HTRF; read-out: IC50 Aurora A (biochemical). In kind it is biochemical. On the procedure: The clone of human Aurora A kinase domain (residues 122-403 in the pET24-d vector) was kindly provided by the Montoya laboratory (University of Copenhagen). The construct was transformed into E. coli BL21 (DE3) Rosetta cells and protein expression was induced with 0.5 mM IPTG at 20° C. for 12 hours. The cells were harvested at 6,000×g for 25 min at 4° C. and resuspended in lysis buffer (50 mM Tris-HCl, 500 mM NaCl, 1 mM PMSF, pH=8.0). Disruption of the cells was performed by sonication cooled on ice, after which the debris were removed by centrifugation at 110,000×g for 30 min at 4° C. Aurora A was purified by affinity chromatography using NiNTA resin from Qiagen following the manufacturer's instructions. After loading, the resin was washed with lysis buffer, followed by a second wash with 6% elution buffer (50 mM Tris-HCl, 500 mM NaCl, 500 mM imidazole, pH=8.0). Protein was eluted with 100% elution buffer. The eluate was exchanged into final buffer (20 mM Tris-HCl, 200 mM NaCl, 0.5 mM EDTA, 2 mM DTT, pH=8.0) using a HiPrep 26/10 desalting column (GE Healthcare). The His-tag was cleaved with TEV protease at 4° C. overnight. […] Protein concentration was determined by UV absorbance. […]
Aurora A and AuroraB kinases were assayed using the homogeneous time-resolved fluorescence (HTRF) KinEASE STK2 kit from Cisbio (France). […] After incubation at room temperature for one hour, fluorescence was measured at 620 nm (europium cryptate) and 665 nm (XL-665) after excitation at 317 nm (lag time 60 μs, integration time 500 μs) using a Tecan Infinite M1000 PRO microplate reader (Greiner 384-well plates, white, non-binding, small volume). The ratio of fluorescence (665 nm/620 nm) was calculated for each well and the results were expressed as follows: specific signal=ratio (sample)−ratio (negative control), where ratio=665 nm/620 nm×10^4. Compounds were measured in threefold serial dilutions at 10 different concentrations, covering the concentration range from no to full inhibition. Each concentration was measured in duplicates, and two independent determinations were made for each IC50 value. […]
Background: TR-FRET usually uses a lanthanide donor and a delayed reading to cut background.

The term IC50 denotes the concentration that gives 50% inhibition.

As for `CCc1ccc(N=C2SC(=Cc3ccnc(Nc4ccc(C(=O)O)cn4)c3)C(=O)N2C)cc1` [Compound 9], the IC50 came to 2 ± 0.5 nM.
